Our source for the GI50 and TGI values is PubChem BioAssay (NCI).

Among the test systems are SK-OV-3 ovarian; A549 NSCLC; OVCAR-5 ovarian; NCI-H226 lung; HT29 colon; IGROV1 ovarian; SN12C renal; LOX IMVI melanoma; SF-268 CNS; HCT-116 colon.
Common to all, as to assay: NCI-60 cell line screen, 48 h

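Each compound was tested at five concentrations against cells in 96-well plates for 48 hours. The concentration for 50% growth inhibition is given as GI50. TGI marks complete inhibition of growth.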 Some results are limits rather than exact numbers.

For the compound `NCC1OC(OC2C(CO)OC(OC3C(O)C(N)CC(N)C3OC3OC(CO)C(O)CC3N)C2O)C(N)C(O)C1OC1OC(CO)C(O)C(O)C1O` (stereo not given), the GI50 with SK-OV-3 ovarian, in the assay on A549 NSCLC, in the assay on OVCAR-5 ovarian, with NCI-H226 lung, with HT29 colon and with IGROV1 ovarian was above 50 µg/mL throughout. The GI50 in the assay on SN12C renal, in the assay with LOX IMVI melanoma, with SF-268 CNS and in the assay with HCT-116 colon was above 50 µg/mL throughout. In addition, the TGI with SK-OV-3 ovarian, in the assay on A549 NSCLC, in the assay on OVCAR-5 ovarian, in the assay on NCI-H226 lung, in the assay on HT29 colon and in the assay with IGROV1 ovarian was above 50 µg/mL throughout. The TGI in the assay with SN12C renal, with LOX IMVI melanoma, in the assay with SF-268 CNS and in the assay on HCT-116 colon was above 50 µg/mL each time.

For `OCCN1CCN2C=C(C3CCCC4N(CCO)CCN34)CCC21` (stereo not given), the TGI in the assay on SK-OV-3 ovarian, in the assay on A549 NSCLC, with OVCAR-5 ovarian, in the assay with NCI-H226 lung, with HT29 colon and with IGROV1 ovarian was above 100 µM each time. The TGI in the assay with SN12C renal was above 100 µM; in the assay on LOX IMVI melanoma it was above 100 µM; with SF-268 CNS it was above 100 µM; in the assay on HCT-116 colon, above 87.2 µM.

Regarding `NCOC(=O)Cc1ccc(Br)cc1`, the TGI with SK-OV-3 ovarian, with A549 NSCLC, in the assay with OVCAR-5 ovarian, in the assay on NCI-H226 lung, with HT29 colon and with IGROV1 ovarian was above 100 µM each time. The TGI with SN12C renal, with LOX IMVI melanoma, with SF-268 CNS and in the assay on HCT-116 colon was above 100 µM in each case.

With `CC(=O)N1N=C2/C(=C/c3ccc(Cl)cc3)CC(C)CC2C1c1ccc(Cl)cc1` (stereo not given), the GI50 is 20.4 µM in the assay on SK-OV-3 ovarian; 20.6 µM with A549 NSCLC; 43.4 µM with OVCAR-5 ovarian; 22 µM in the assay with NCI-H226 lung; 21.7 µM with HT29 colon; 22.5 µM with IGROV1 ovarian. Moreover, the GI50 in the assay with SN12C renal was 19.9 µM; with LOX IMVI melanoma it was 18.1 µM; in the assay with SF-268 CNS, 21.5 µM; in the assay with HCT-116 colon, 12.6 µM. In addition, the TGI with SK-OV-3 ovarian was 59.6 µM; in the assay with A549 NSCLC, above 100 µM; in the assay with OVCAR-5 ovarian it was above 100 µM; in the assay with NCI-H226 lung, 70.2 µM; in the assay on HT29 colon, 91.5 µM; in the assay on IGROV1 ovarian it was 67.2 µM. Further, the TGI is 40.4 µM with SN12C renal, 34.6 µM in the assay on LOX IMVI melanoma, 73.4 µM in the assay on SF-268 CNS and 25.2 µM in the assay on HCT-116 colon.

Turning to `O=C1c2cc([N+](=O)[O-])ccc2-c2ccc3c4ccc5c6c(ccc(c7ccc1c2c73)c64)C(=O)c1cc([N+](=O)[O-])ccc1-5`, the TGI in the assay with SK-OV-3 ovarian, with A549 NSCLC, with OVCAR-5 ovarian, in the assay with NCI-H226 lung, with HT29 colon and in the assay on IGROV1 ovarian was above 100 µM in each case. Also, the TGI in the assay with SN12C renal, in the assay with LOX IMVI melanoma, in the assay with SF-268 CNS and in the assay on HCT-116 colon was above 100 µM throughout.

In the case of `CN(Cc1cc(Cl)cc(Cl)c1O)Cc1c(O)ccc2ccccc12`, the TGI was 36.8 µM with SK-OV-3 ovarian; 62.3 µM in the assay on A549 NSCLC; 52.5 µM in the assay with OVCAR-5 ovarian; 37.7 µM in the assay on NCI-H226 lung; above 100 µM in the assay with HT29 colon; 33.9 µM with IGROV1 ovarian. In addition, the TGI with SN12C renal was determined as 43.7 µM; in the assay with LOX IMVI melanoma, 32.8 µM; in the assay with SF-268 CNS it was 28.2 µM; with HCT-116 colon, 58.7 µM.

Take `CCN(CC)C1CCC(Nc2c(C(C)=O)cnc3ccc(-c4ccc(O)c(Cl)c4)cc23)CC1` (stereo not given): the GI50 is 0.931 µM in the assay with SK-OV-3 ovarian; 0.58 µM with A549 NSCLC; 2.4 µM in the assay with OVCAR-5 ovarian; 2.16 µM in the assay on NCI-H226 lung; 1.64 µM in the assay with HT29 colon; 0.253 µM in the assay with IGROV1 ovarian. Besides, the GI50 is 0.45 µM in the assay with SN12C renal, 0.336 µM with LOX IMVI melanoma, 0.487 µM with SF-268 CNS and 0.568 µM with HCT-116 colon. Also, the TGI in the assay with SK-OV-3 ovarian was above 44.5 µM; in the assay on A549 NSCLC it was 5.52 µM; in the assay with OVCAR-5 ovarian, above 96.3 µM; in the assay on NCI-H226 lung it was 22.6 µM; in the assay on HT29 colon it was 3.51 µM; with IGROV1 ovarian, 5.47 µM. The TGI is above 60 µM in the assay on SN12C renal, 1.58 µM in the assay on LOX IMVI melanoma, 12.2 µM in the assay with SF-268 CNS and 4.59 µM with HCT-116 colon.

For `COc1ccc(Nc2cc(C)nc(NCCCNc3ccnc4cc(Cl)ccc34)n2)cc1`, the GI50 in the assay on SK-OV-3 ovarian is 1.67 µM; in the assay with A549 NSCLC, 1.91 µM; in the assay on OVCAR-5 ovarian it was 2.35 µM; with NCI-H226 lung, 2.08 µM; with HT29 colon, 1.1 µM; in the assay with IGROV1 ovarian, 2.25 µM. Moreover, the GI50 in the assay on SN12C renal was 2.74 µM; with LOX IMVI melanoma it was 1.4 µM; in the assay with SF-268 CNS, 1.8 µM; with HCT-116 colon, 1.27 µM. The TGI with SK-OV-3 ovarian was determined as 3.2 µM; with A549 NSCLC it was 3.86 µM; in the assay on OVCAR-5 ovarian it was 6.69 µM; with NCI-H226 lung, 5.17 µM; in the assay with HT29 colon, 2.67 µM; with IGROV1 ovarian it was 6.09 µM. Also, the TGI is 10.8 µM in the assay with SN12C renal, 2.85 µM with LOX IMVI melanoma, 3.61 µM with SF-268 CNS and 3.82 µM in the assay on HCT-116 colon.

`CC(=O)OC1CC2C3CCC4C[C@@H](NC(=O)C=C(C)C)CC[C@]4(C)C3CC[C@]2(C)[C@H]1C(C)N(C)C` (stereo not given in full): the GI50 in the assay on SK-OV-3 ovarian was 2.79 µM; in the assay with A549 NSCLC, 2.39 µM; in the assay on OVCAR-5 ovarian, 3.46 µM; in the assay on NCI-H226 lung, 3.6 µM; in the assay with HT29 colon, 0.376 µM; in the assay on IGROV1 ovarian, 1.28 µM. For the same compound, the GI50 in the assay with SN12C renal is 2.4 µM; in the assay with LOX IMVI melanoma it was 1.07 µM; with SF-268 CNS, 1.58 µM; in the assay on HCT-116 colon, 0.854 µM. The TGI worked out at 7.38 µM in the assay with SK-OV-3 ovarian; 6.99 µM with A549 NSCLC; 10.4 µM in the assay with OVCAR-5 ovarian; 15 µM in the assay on NCI-H226 lung; 1.47 µM with HT29 colon; 6.5 µM in the assay with IGROV1 ovarian. Moreover, the TGI in the assay on SN12C renal amounted to 8 µM; in the assay with LOX IMVI melanoma, 2.53 µM; in the assay on SF-268 CNS, 3.4 µM; in the assay on HCT-116 colon, 2.22 µM.

For `NC(N)=N/N=C/c1ccc(-c2ccc(-c3cc(Cl)cc(Cl)c3)s2)cc1`, the GI50 in the assay with SK-OV-3 ovarian was 2 µM; in the assay with A549 NSCLC it was 2.15 µM; in the assay on OVCAR-5 ovarian, 1.59 µM; in the assay with NCI-H226 lung it was 2.33 µM; with HT29 colon it was 1.91 µM; in the assay on IGROV1 ovarian, 1.68 µM. The GI50 in the assay on SN12C renal was 1.76 µM; in the assay with LOX IMVI melanoma, 1.65 µM; in the assay on SF-268 CNS, 1.85 µM; with HCT-116 colon it was 1.31 µM. Besides, the TGI in the assay on SK-OV-3 ovarian was found to be 4.08 µM; in the assay with A549 NSCLC, 4.99 µM; with OVCAR-5 ovarian, 3.02 µM; with NCI-H226 lung, 5.99 µM; in the assay on HT29 colon, 4.81 µM; in the assay with IGROV1 ovarian it was 3.36 µM. In addition, the TGI worked out at 3.48 µM in the assay with SN12C renal, 3.42 µM in the assay on LOX IMVI melanoma, 4.22 µM in the assay with SF-268 CNS and 2.99 µM with HCT-116 colon.
